Measurements published in patent US20260070945A1, “MACROCYCLIC IMMUNOMODULATORS” (Bristol-Myers Squibb Company, priority 2022, published 2026).
Where a SMILES comes first, the peptide text is derived from it. Bridges are numbered along the chain shown (N, C = ends). [ ]: non-standard residue; d: D form. The star is where a group is joined. ξ: configuration not given here. Phe(4-COOH) = N[C@@H](Cc1ccc(C(=O)O)cc1)C(=O)O; Bip = N[C@@H](Cc1ccc(-c2ccccc2)cc1)C(=O)O; Phe(3-Me) = Cc1cccc(C[C@H](N)C(=O)O)c1; Val(3-OH) = CC(C)(O)[C@H](N)C(=O)O; 4Pal = N[C@@H](Cc1ccncc1)C(=O)O; 3Thi = N[C@@H](Cc1ccsc1)C(=O)O; Cha = N[C@@H](CC1CCCCC1)C(=O)O; Thr(3ξ) = CC(O)[C@H](N)C(=O)O; Carboxymethyl = O=C(O)C*; NMeA = CN[C@@H](C)C(=O)O; Orn = NCCC[C@H](N)C(=O)O; Aun = NCCCCCCCCCCC(=O)O; Dab = NCC[C@H](N)C(=O)O; AEEA = NCCOCCOCC(=O)O

What follows are molecules tested against T1, PD-1/PD-L1 interaction (PE-labeled human PD-L1-Ig binding to Jurkat cell line over-expressing human PD-1) (Homo sapiens, UniProt Q15116) (assay: Jurkat-PD-1 Cell Binding High-Content Screening Assay (CBA)). Settings: PE-labeled PD-L1-Ig 20 nM final, Jurkat-hPD-1 cells; read-out: Jurkat HPD1 PDL1 IC50.
T1 construct: expressed in transfected cells; host or cells: Jurkat
T1 sequence (Q15116 25-288): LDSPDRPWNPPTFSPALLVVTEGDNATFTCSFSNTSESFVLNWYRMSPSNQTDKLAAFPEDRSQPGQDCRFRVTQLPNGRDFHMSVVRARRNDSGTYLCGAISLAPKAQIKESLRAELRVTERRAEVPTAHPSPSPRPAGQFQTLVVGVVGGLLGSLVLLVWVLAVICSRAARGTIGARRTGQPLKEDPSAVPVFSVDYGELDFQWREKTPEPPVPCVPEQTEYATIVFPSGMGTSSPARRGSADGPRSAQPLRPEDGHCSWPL
Procedure, shortened: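 High-content imaging read-out of PE-PD-L1-Ig binding (20 nM final, 1 h) to Jurkat-hPD-1 cells, after 2 h compound exposure at 37 °C in DMEM with 10% FCS. Nuclei counterstained with Hoechst 33342 after paraformaldehyde fixation.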

IC50	SMILES
32.5 nM	Cc1cccc(C[C@@H]2NC(=O)[C@H](CC(=O)O)NC(=O)[C@H](Cc3ccc(OCC(=O)O)cc3)NC(=O)[C@H](Cc3ccncc3)NC(=O)CSC[C@@H](C(=O)N[C@@H](CCCN)C(=O)NCCOCCOCC(=O)NCCCCCCCCCCC(=O)O)NC(=O)[C@H](CCC(=O)O)NC(=O)[C@H](C(C)(C)O)NC(=O)[C@H](CC3CCCCC3)NC(=O)[C@H](CCN)NC(=O)[C@@H](CC(C)C)NC(=O)[C@H](C)N(C)C(=O)[C@H](Cc3ccc(C(=O)O)cc3)NC(=O)[C@H](Cc3ccc(-c4ccccc4)cc3)NC(=O)[C@H](Cc3ccc(C(=O)O)cc3)NC2=O)c1 [Example 2497] ({CH2CO}-[4Pal]Y(Carboxymethyl)D[Phe(3-Me)][Phe(4-COOH)][Bip][Phe(4-COOH)][NMeA][dL][Dab][Cha][Val(3-OH)]EC[Orn][AEEA][Aun]-OH; thioether N-14)
36.2 nM	Cc1cccc(C[C@@H]2NC(=O)[C@H](CC(=O)O)NC(=O)[C@H](Cc3ccc(C(=O)O)cc3)NC(=O)[C@H](Cc3ccncc3)NC(=O)CSC[C@@H](C(=O)N[C@@H](CCCN)C(=O)NCCOCCOCC(=O)NCCCCCCCCCCC(=O)O)NC(=O)[C@H](CCC(=O)O)NC(=O)[C@H](C(C)(C)O)NC(=O)[C@H](CC3CCCCC3)NC(=O)[C@H](Cc3cnc[nH]3)NC(=O)[C@@H](CC(C)C)NC(=O)[C@H](C)N(C)C(=O)[C@H](Cc3ccc(C(=O)O)cc3)NC(=O)[C@H](Cc3ccc(-c4ccccc4)cc3)NC(=O)[C@H](Cc3ccc(C(=O)O)cc3)NC2=O)c1 [Example 2498] ({CH2CO}-[4Pal][Phe(4-COOH)]D[Phe(3-Me)][Phe(4-COOH)][Bip][Phe(4-COOH)][NMeA][dL]H[Cha][Val(3-OH)]EC[Orn][AEEA][Aun]-OH; thioether N-14)
78 nM	Cc1cccc(C[C@@H]2NC(=O)[C@H](CC(=O)O)NC(=O)[C@H](Cc3ccc(C(=O)O)cc3)NC(=O)[C@H](C(C)O)NC(=O)CSC[C@@H](C(=O)N[C@@H](CCCN)C(=O)NCCOCCOCC(=O)NCCCCCCCCCCC(=O)O)NC(=O)[C@H](CCC(=O)O)NC(=O)[C@H](C(C)(C)O)NC(=O)[C@H](CC3CCCCC3)NC(=O)[C@H](CCN)NC(=O)[C@@H](CC(C)C)NC(=O)[C@H](C)N(C)C(=O)[C@H](Cc3ccc(C(=O)O)cc3)NC(=O)[C@H](Cc3ccc(-c4ccccc4)cc3)NC(=O)[C@H](Cc3ccc(C(=O)O)cc3)NC2=O)c1 (stereo partly drawn) [Example 2499] ({CH2CO}-[Thr(3ξ)][Phe(4-COOH)]D[Phe(3-Me)][Phe(4-COOH)][Bip][Phe(4-COOH)][NMeA][dL][Dab][Cha][Val(3-OH)]EC[Orn][AEEA][Aun]-OH; thioether N-14)
19.5 nM	Cc1cccc(C[C@@H]2NC(=O)[C@H](CC(=O)O)NC(=O)[C@H](Cc3ccc(C(=O)O)cc3)NC(=O)[C@H](Cc3ccsc3)NC(=O)CSC[C@@H](C(=O)N[C@@H](CCN)C(=O)NCCOCCOCC(=O)NCCOCCOCC(=O)NCCCCCCCCCCC(=O)O)NC(=O)[C@H](CCC(=O)O)NC(=O)[C@H](C(C)(C)O)NC(=O)[C@H](CC3CCCCC3)NC(=O)[C@H](CCN)NC(=O)[C@@H](CC(C)C)NC(=O)[C@H](C)N(C)C(=O)[C@H](Cc3ccc(OCC(=O)O)cc3)NC(=O)[C@H](Cc3ccc(-c4ccccc4)cc3)NC(=O)[C@H](Cc3ccc(OCC(=O)O)cc3)NC2=O)c1 [Example 2500] ({CH2CO}-[3Thi][Phe(4-COOH)]D[Phe(3-Me)]Y(Carboxymethyl)[Bip]Y(Carboxymethyl)[NMeA][dL][Dab][Cha][Val(3-OH)]EC[Dab][AEEA][AEEA][Aun]-OH; thioether N-14)

Continued, molecule first:

SMILES	IC50
Cc1cccc(C[C@@H]2NC(=O)[C@H](CC(=O)O)NC(=O)[C@H](Cc3ccc(OCC(=O)O)cc3)NC(=O)[C@H](Cc3ccncc3)NC(=O)CSC[C@@H](C(=O)N[C@@H](CCN)C(=O)NCCOCCOCC(=O)NCCCCCCCCCCC(=O)O)NC(=O)[C@H](CCC(=O)O)NC(=O)[C@H](C(C)(C)O)NC(=O)[C@H](CC3CCCCC3)NC(=O)[C@H](CCN)NC(=O)[C@@H](CC(C)C)NC(=O)[C@H](C)N(C)C(=O)[C@H](Cc3ccc(C(=O)O)cc3)NC(=O)[C@H](Cc3ccc(-c4ccccc4)cc3)NC(=O)[C@H](Cc3ccc(C(=O)O)cc3)NC2=O)c1 [Example 2485] ({CH2CO}-[4Pal]Y(Carboxymethyl)D[Phe(3-Me)][Phe(4-COOH)][Bip][Phe(4-COOH)][NMeA][dL][Dab][Cha][Val(3-OH)]EC[Dab][AEEA][Aun]-OH; thioether N-14)	11.5 nM
Cc1cccc(C[C@@H]2NC(=O)[C@H](CC(=O)O)NC(=O)[C@H](Cc3ccc(OCC(=O)O)cc3)NC(=O)[C@H](Cc3ccncc3)NC(=O)CSC[C@@H](C(=O)NCCOCCOCC(=O)NCCOCCOCC(=O)NCCCCCCCCCCC(=O)O)NC(=O)[C@H](CCC(=O)O)NC(=O)[C@H](C(C)(C)O)NC(=O)[C@H](CC3CCCCC3)NC(=O)[C@H](CCN)NC(=O)[C@@H](CC(C)C)NC(=O)[C@H](C)N(C)C(=O)[C@H](Cc3ccc(C(=O)O)cc3)NC(=O)[C@H](Cc3ccc(-c4ccccc4)cc3)NC(=O)[C@H](Cc3ccc(C(=O)O)cc3)NC2=O)c1 [Example 2486] ({CH2CO}-[4Pal]Y(Carboxymethyl)D[Phe(3-Me)][Phe(4-COOH)][Bip][Phe(4-COOH)][NMeA][dL][Dab][Cha][Val(3-OH)]EC[AEEA][AEEA][Aun]-OH; thioether N-14)	305 nM
CC(=O)NCCCC[C@@H]1NC(=O)[C@H](C(C)C)NC(=O)[C@H](CC2CCCCC2)NC(=O)[C@H](CCN)NC(=O)[C@@H](CC(C)C)NC(=O)[C@H](C)N(C)C(=O)[C@H](CCC(N)=O)NC(=O)[C@H](Cc2ccc(-c3ccccc3)cc2)NC(=O)[C@H](C(C)C)NC(=O)[C@H](Cc2c[nH]c3ccccc23)NC(=O)[C@H](CC(=O)O)NC(=O)[C@H](Cc2ccc(OCC(=O)O)cc2)NC(=O)[C@H](Cc2ccncc2)NC(=O)CSC[C@@H](C(=O)N[C@@H](CCN)C(=O)NCCOCCOCC(=O)NCCCCCCCCCCC(=O)O)NC1=O [Example 2491] ({CH2CO}-[4Pal]Y(Carboxymethyl)DWV[Bip]Q[NMeA][dL][Dab][Cha]VK(Ac)C[Dab][AEEA][Aun]-OH; thioether N-14)	19.1 nM
CC(C)C[C@H]1NC(=O)[C@H](C)N(C)C(=O)[C@H](CCC(N)=O)NC(=O)[C@H](Cc2ccc(-c3ccccc3)cc2)NC(=O)[C@H](C(C)C)NC(=O)[C@H](Cc2c[nH]c3ccccc23)NC(=O)[C@H](CC(=O)O)NC(=O)[C@H](Cc2ccc(OCC(=O)O)cc2)NC(=O)[C@H](Cc2ccncc2)NC(=O)CSC[C@@H](C(=O)N[C@@H](CCN)C(=O)NCCOCCOCC(=O)NCCCCCCCCCCC(=O)O)NC(=O)[C@H](CCC(=O)O)NC(=O)[C@H](C(C)C)NC(=O)[C@H](CC2CCCCC2)NC(=O)[C@H](CCN)NC1=O [Example 2492] ({CH2CO}-[4Pal]Y(Carboxymethyl)DWV[Bip]Q[NMeA][dL][Dab][Cha]VEC[Dab][AEEA][Aun]-OH; thioether N-14)	31.1 nM
CC(=O)NCCCC[C@@H]1NC(=O)[C@H](C(C)C)NC(=O)[C@H](CC2CCCCC2)NC(=O)[C@H](CCN)NC(=O)[C@@H](CC(C)C)NC(=O)[C@H](C)N(C)C(=O)[C@H](CCC(N)=O)NC(=O)[C@H](Cc2ccc(-c3ccccc3)cc2)NC(=O)[C@H](Cc2ccc(OCC(=O)O)cc2)NC(=O)[C@H](Cc2cccc(C)c2)NC(=O)[C@H](CC(=O)O)NC(=O)[C@H](Cc2ccc(OCC(=O)O)cc2)NC(=O)[C@H](Cc2ccncc2)NC(=O)CSC[C@@H](C(=O)N[C@@H](CCN)C(=O)NCCOCCOCC(=O)NCCCCCCCCCCC(=O)O)NC1=O [Example 2493] ({CH2CO}-[4Pal]Y(Carboxymethyl)D[Phe(3-Me)]Y(Carboxymethyl)[Bip]Q[NMeA][dL][Dab][Cha]VK(Ac)C[Dab][AEEA][Aun]-OH; thioether N-14)	4.8 nM
CC(C)C[C@H]1NC(=O)[C@H](C)N(C)C(=O)[C@H](CCC(N)=O)NC(=O)[C@H](Cc2ccc(-c3ccccc3)cc2)NC(=O)[C@H](C(C)C)NC(=O)[C@H](Cc2c[nH]c3ccccc23)NC(=O)[C@H](CC(=O)O)NC(=O)[C@H](Cc2ccc(OCC(=O)O)cc2)NC(=O)[C@H](Cc2ccncc2)NC(=O)CSC[C@@H](C(=O)N[C@@H](CCN)C(=O)NCCOCCOCC(=O)NCCCCCCCCCCC(=O)O)NC(=O)[C@H](CCC(=O)O)NC(=O)[C@H](C(C)(C)O)NC(=O)[C@H](CC2CCCCC2)NC(=O)[C@H](CCN)NC1=O [Example 2494] ({CH2CO}-[4Pal]Y(Carboxymethyl)DWV[Bip]Q[NMeA][dL][Dab][Cha][Val(3-OH)]EC[Dab][AEEA][Aun]-OH; thioether N-14)	9.2 nM
Cc1cccc(C[C@@H]2NC(=O)[C@H](CC(=O)O)NC(=O)[C@H](Cc3ccc(C(=O)O)cc3)NC(=O)[C@H](Cc3ccncc3)NC(=O)CSC[C@@H](C(=O)N[C@@H](CCN)C(=O)NCCOCCOCC(=O)NCCOCCOCC(=O)NCCCCCCCCCCC(=O)O)NC(=O)[C@H](CCC(=O)O)NC(=O)[C@H](C(C)(C)O)NC(=O)[C@H](CC3CCCCC3)NC(=O)[C@H](CCN)NC(=O)[C@@H](CC(C)C)NC(=O)[C@H](C)N(C)C(=O)[C@H](Cc3ccc(C(=O)O)cc3)NC(=O)[C@H](Cc3ccc(-c4ccccc4)cc3)NC(=O)[C@H](Cc3ccc(C(=O)O)cc3)NC2=O)c1 [Example 2495] ({CH2CO}-[4Pal][Phe(4-COOH)]D[Phe(3-Me)][Phe(4-COOH)][Bip][Phe(4-COOH)][NMeA][dL][Dab][Cha][Val(3-OH)]EC[Dab][AEEA][AEEA][Aun]-OH; thioether N-14)	108 nM
Cc1cccc(C[C@@H]2NC(=O)[C@H](CC(=O)O)NC(=O)[C@H](Cc3ccc(OCC(=O)O)cc3)NC(=O)[C@H](Cc3ccncc3)NC(=O)CSC[C@@H](C(=O)N[C@@H](CO)C(=O)NCCOCCOCC(=O)NCCCCCCCCCCC(=O)O)NC(=O)[C@H](CCC(=O)O)NC(=O)[C@H](C(C)(C)O)NC(=O)[C@H](CC3CCCCC3)NC(=O)[C@H](CCN)NC(=O)[C@@H](CC(C)C)NC(=O)[C@H](C)N(C)C(=O)[C@H](Cc3ccc(C(=O)O)cc3)NC(=O)[C@H](Cc3ccc(-c4ccccc4)cc3)NC(=O)[C@H](Cc3ccc(C(=O)O)cc3)NC2=O)c1 [Example 2496] ({CH2CO}-[4Pal]Y(Carboxymethyl)D[Phe(3-Me)][Phe(4-COOH)][Bip][Phe(4-COOH)][NMeA][dL][Dab][Cha][Val(3-OH)]ECS[AEEA][Aun]-OH; thioether N-14)	67.1 nM
